# Results: publication PMC12169614, “Exploring Long Arm Amide-Linked Side Chains in the Design of Antifungal Azole Inhibitors of Sterol 14α-Demethylase (CYP51)” (Journal of Medicinal Chemistry, 2025)
# Tests used:
# Y2459 OE CaCYP51 CaCpr = test: MIC80 determination, strain Y2459; assay type: cell-based, S. cerevisiae
# Method in brief: (§1)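 Seed at OD600 0.005 (1.5 × 10^4 CFU); shake at 200 rpm, 30 °C; stop at 48 h (S. cerevisiae) or 24 h (C. albicans); measure OD600 to derive MIC80.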
# Y71 SC5314 = test: MIC80 determination, C. albicans clinical isolate Y71 SC5314; assay type: cell-based; settings: Candida albicans
# Method in brief: as §1
# Y1 = test: MIC80 determination, C. albicans clinical isolate Y1; assay type: cell-based; settings: Candida albicans, pH 7, 24 h
# Method in brief: as §1
# Y610 FHB1 = test: MIC80 determination, C. albicans clinical isolate Y610 FHB1; assay type: cell-based; settings: Candida albicans; C. albicans clinical isolate Y610 FHB1 (weakly expresses CaCDR1); pH 7, 24 h
# Method in brief: as §1
# Y2716 OE CpCYP51 Y132F = test: MIC80 determination, strain Y2716; assay type: cell-based, S. cerevisiae
# Method in brief: as §1
# Y433 OE CgCDR1 = test: MIC80 determination, strain Y433; assay type: cell-based, S. cerevisiae; settings: Saccharomyces cerevisiae
# Method in brief: as §1
# Y2767 OE CauCYP51 = test: MIC80 determination, strain Y2767; assay type: cell-based, S. cerevisiae
# Experimental: (§2) Cells were seeded at an OD600 nm of 0.005 (1.5 × 10^4 CFU), and the plates were incubated at 30 °C with shaking at 200 rpm for 48 h for S. cerevisiae strains and 24 h for C. albicans . Cell growth was assessed by measuring the OD600 nm using a Synergy 2 multimode plate reader (BioTek Instruments, VT, USA). Each MIC80 was determined using triplicate measurements for pools of 4 clones of each strain in three separate experiments.
# Y2768 OE CauCYP51 Y132F = test: MIC80 determination, strain Y2768; assay type: cell-based, S. cerevisiae
# Experimental: as §2
# Y2766 OE CauCDR1 = test: MIC80 determination, strain Y2766; assay type: cell-based, S. cerevisiae; settings: Saccharomyces cerevisiae
# Experimental: as §2
# 2711 CnCYP51 OE CnCPR = test: MIC80 determination, strain 2711; assay type: cell-based, S. cerevisiae
# Method in brief: as §1
# Y2649 OE CYP51 F1 RaCPR = test: MIC80 determination, strain Y2649; assay type: cell-based, S. cerevisiae
# Method in brief: as §1
# Y2651 OE CYP51 F5 RaCPR = test: MIC80 determination, strain Y2651; assay type: cell-based, S. cerevisiae; settings: Saccharomyces cerevisiae
# Method in brief: as §1
# [1] = test system: Y2746 OE AfCYP51A AfCPR AfERG6; test: MIC80 determination, strain Y2746; assay type: cell-based, S. cerevisiae; settings: Saccharomyces cerevisiae
# Method in brief: as §1
# [2] = test system: Y2300 ScCYP51 overexpressed; test: Agarose (disk) diffusion assay, strain Y2300; assay type: cell-based, S. cerevisiae; settings: 10 nmol/disk, 30 °C, 48 h
# Description: (§3) Final compounds were screened as racemic mixtures using agarose diffusion assays to visualize their inhibitory activity against a panel of recombinant S. cerevisiae strains i.e., S. cerevisiae strains expressing control levels of wild-type CYP51 (ScCYP51), overexpressed wild-type ScCYP51, overexpressed azole-resistant ScCYP51 Y140F/H mutations and overexpressed C. albicans efflux pumps MDR1a or CDR1B (Figure and Table S1).
# (§4) The susceptibilities of S. cerevisiae and Candida species strains to azole compounds were observed as zones of growth inhibition in agarose diffusion assays. The disk diffusion assays were carried out as described by Keniya et al. Complete supplement mixture (CSM) agarose (0.6% agarose [wt/vol]; 20 mL of synthetic defined medium (SD); pH 6.8–7) was solidified in a rectangular Petri dish which was overlaid with CSM agarose (0.6% [wt/vol]; 5 mL; pH 6.8–7) seeded with yeast cells at an optical density (OD600) of 0.008 (118,000 cells per 1 mL of overlay). Azole compounds (10 nmol/disk) were applied to sterile BBL paper disks (Becton Dickinson Co., Sparks, MD) and placed on solidified overlays. Cell growth was assessed after incubation at 30 °C for 48 h.
# [3] = test system: Y525 MFS efflux pump CaMDR1a overexpressed; test: Agarose (disk) diffusion assay, strain Y525; assay type: cell-based, S. cerevisiae; settings: 10 nmol/disk, 30 °C, 48 h
# Description: as §3, §4
# wild-type CaCYP51 = wild-type CaCYP51 (Candida albicans, UniProt P10613); test: Reconstituted CYP51 activity assay, wild type; assay type: biochemical, C. albicans; settings: 1 μM CaCyp51, 50 μM lanosterol; duplicate, mean ± SD
# wild-type CaCYP51, sequence (P10613 whole entry): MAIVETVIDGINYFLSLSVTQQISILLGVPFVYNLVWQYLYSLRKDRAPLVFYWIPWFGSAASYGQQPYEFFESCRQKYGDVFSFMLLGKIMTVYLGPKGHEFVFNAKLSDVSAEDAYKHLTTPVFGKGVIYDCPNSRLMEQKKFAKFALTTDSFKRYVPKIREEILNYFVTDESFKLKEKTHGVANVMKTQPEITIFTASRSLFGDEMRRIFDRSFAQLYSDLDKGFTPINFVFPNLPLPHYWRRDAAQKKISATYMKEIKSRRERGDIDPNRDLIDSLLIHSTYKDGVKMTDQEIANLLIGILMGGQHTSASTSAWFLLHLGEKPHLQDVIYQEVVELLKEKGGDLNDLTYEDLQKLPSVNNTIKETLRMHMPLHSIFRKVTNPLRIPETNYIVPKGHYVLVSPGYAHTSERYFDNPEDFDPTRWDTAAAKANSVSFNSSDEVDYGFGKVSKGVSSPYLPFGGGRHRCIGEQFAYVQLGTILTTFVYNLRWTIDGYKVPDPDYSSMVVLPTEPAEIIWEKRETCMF
# Experimental: (§5) The reconstituted CYP51 assay previously described contained 1 μM CaCyp51, 2 μM Homo sapiens cytochrome P450 reductase and 50 μM lanosterol in a final volume of 500 μL. After the addition of azole in DMSO (2.5 μL), reactions were incubated at 37 °C for 10 min prior to initiation by the addition of 100 μL 20 mM β-NADPH-Na4. Sterol substrates and products were extracted with ethyl acetate, derivatized with N,O-bis(trimethylsilyl)-trifluoroacetamide (BSTFA)–trimethylchlorosilane (TMCS) (99:1) in the presence of anhydrous pyridine, and analyzed by GC/MS as described previously. IC50 determinations were performed in duplicate. Nonlinear regression of inhibitor concentration vs normalized response was calculated by GraphPad Prism 10.4.0 for Windows (GraphPad Software, Boston, Massachusetts, USA, www.graphpad.com).
# CaCYP51 Y132F = CaCYP51 Y132F (Candida albicans, UniProt P10613, Y132F); test: Reconstituted CYP51 activity assay, Y132F; assay type: biochemical, C. albicans; settings: 1 μM CaCyp51, 50 μM lanosterol; duplicate, mean ± SD
# CaCYP51 Y132F, sequence (P10613 whole entry Y132F): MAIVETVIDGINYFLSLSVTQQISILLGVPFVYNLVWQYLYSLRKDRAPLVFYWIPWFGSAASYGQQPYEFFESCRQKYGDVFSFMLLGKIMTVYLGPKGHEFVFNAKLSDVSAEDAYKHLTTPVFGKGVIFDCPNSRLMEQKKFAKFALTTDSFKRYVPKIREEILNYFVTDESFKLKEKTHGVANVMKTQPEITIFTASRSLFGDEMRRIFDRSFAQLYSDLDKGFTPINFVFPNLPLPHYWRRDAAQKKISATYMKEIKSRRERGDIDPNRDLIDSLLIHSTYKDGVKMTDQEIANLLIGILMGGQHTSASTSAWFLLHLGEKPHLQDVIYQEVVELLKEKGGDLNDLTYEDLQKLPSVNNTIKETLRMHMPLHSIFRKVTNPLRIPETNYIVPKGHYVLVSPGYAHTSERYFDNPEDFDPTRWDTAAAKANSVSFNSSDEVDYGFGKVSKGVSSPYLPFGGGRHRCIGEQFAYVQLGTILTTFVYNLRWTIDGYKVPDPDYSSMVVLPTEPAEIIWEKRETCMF
# Experimental: as §5
# CaCYP51 Y132H + K143R = CaCYP51 Y132H + K143R (Candida albicans, UniProt P10613, K143R/Y132H); test: Reconstituted CYP51 activity assay, Y132H + K143R; assay type: biochemical, C. albicans; settings: 1 μM CaCyp51, 50 μM lanosterol; duplicate, mean ± SD
# CaCYP51 Y132H + K143R, sequence (P10613 whole entry Y132H/K143R): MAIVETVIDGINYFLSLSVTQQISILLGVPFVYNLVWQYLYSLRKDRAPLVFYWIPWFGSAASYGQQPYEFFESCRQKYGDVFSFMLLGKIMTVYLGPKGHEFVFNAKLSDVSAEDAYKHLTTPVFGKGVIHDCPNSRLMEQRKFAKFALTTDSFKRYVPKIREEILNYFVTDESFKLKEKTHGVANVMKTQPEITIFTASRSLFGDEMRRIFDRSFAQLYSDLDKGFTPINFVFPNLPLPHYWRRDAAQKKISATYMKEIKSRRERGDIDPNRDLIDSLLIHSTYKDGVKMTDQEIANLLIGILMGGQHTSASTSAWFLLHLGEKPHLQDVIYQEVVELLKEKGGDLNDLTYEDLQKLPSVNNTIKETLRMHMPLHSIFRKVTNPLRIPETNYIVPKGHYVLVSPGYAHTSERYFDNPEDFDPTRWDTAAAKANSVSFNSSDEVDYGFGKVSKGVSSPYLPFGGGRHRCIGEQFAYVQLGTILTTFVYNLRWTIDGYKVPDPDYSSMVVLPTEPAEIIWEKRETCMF
# Experimental: as §5
# CYP1A2 = CYP1A2 (Homo sapiens, UniProt P05177); test: CYP IC50 profile, CYP1A2; assay type: biochemical; settings: human liver drug metabolizing enzyme; read-out: CYP IC50 1A2
# CYP1A2, sequence (P05177 whole entry): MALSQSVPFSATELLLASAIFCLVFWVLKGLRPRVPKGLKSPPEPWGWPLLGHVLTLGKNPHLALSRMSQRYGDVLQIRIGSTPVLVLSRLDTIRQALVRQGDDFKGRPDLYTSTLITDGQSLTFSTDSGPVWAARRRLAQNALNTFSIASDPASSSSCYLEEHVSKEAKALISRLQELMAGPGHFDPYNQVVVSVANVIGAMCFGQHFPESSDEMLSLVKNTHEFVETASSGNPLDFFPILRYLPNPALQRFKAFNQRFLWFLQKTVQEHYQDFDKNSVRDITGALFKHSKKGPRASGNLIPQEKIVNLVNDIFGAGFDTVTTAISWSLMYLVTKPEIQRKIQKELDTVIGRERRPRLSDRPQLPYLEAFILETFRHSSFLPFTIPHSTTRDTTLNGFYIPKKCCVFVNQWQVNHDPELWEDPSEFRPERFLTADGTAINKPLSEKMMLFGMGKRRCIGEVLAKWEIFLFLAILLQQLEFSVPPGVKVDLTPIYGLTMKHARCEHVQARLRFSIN
# CYP3A4 = CYP3A4 (Homo sapiens, UniProt P08684); test: CYP IC50 profile, CYP3A4; assay type: biochemical; settings: human liver drug metabolizing enzyme; read-out: CYP IC50 3A4
# CYP3A4, sequence (P08684 whole entry): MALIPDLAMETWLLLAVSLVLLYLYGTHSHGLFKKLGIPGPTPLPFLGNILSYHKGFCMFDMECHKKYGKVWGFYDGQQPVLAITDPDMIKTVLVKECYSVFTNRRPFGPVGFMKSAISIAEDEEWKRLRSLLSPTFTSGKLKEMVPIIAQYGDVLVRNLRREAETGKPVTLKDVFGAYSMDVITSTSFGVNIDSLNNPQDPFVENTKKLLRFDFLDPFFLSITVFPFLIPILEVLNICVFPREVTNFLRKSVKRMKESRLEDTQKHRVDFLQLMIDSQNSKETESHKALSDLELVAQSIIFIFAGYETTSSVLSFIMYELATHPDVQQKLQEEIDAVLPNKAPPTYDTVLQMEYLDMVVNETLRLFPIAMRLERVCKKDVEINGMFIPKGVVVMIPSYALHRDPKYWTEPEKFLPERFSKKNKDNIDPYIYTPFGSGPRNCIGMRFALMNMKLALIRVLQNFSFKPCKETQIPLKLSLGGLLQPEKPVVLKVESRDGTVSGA
structure (smiles),measurement,setting,value
"O=C(NCC(O)(Cn1cncn1)c1ccc(F)cc1F)c1ccc(-c2ccc(OC(F)(F)F)cc2)cc1 (stereo not drawn) [Compound 22, N-(2-(2,4-Difluorophenyl)-2-hydroxy-3-(1H-1,2,4-triazol-1-yl)propyl)-4’-(trifluoromethoxy)-[1,1’-biphenyl]-4-carboxamide]",MIC80,"Y2459 OE CaCYP51 CaCpr; Saccharomyces cerevisiae, 48 h, pH 6.8",0.054 ± 0.022 µM
same,MIC,Y2459 OE CaCYP51 CaCpr; read-out: MIC (nM) C. albicans model Y2459,54 ± 22 nM
same,MIC,"Y71 SC5314; SC5314, supplement csv",40 nM
same,MIC80,"Y71 SC5314; C. albicans clinical isolate Y71 SC5314, pH 7, 24 h",0.04 µM
same,MIC80,Y1,0.067 µM
same,MIC80,Y610 FHB1,0.153 ± 0.067 µM
same,increase in resistance owing to the CpCYP51 Y132F mutation,Y2716 OE CpCYP51 Y132F; MIC80 Y2716 versus Y2721,2 fold
same,MIC80,Y2716 OE CpCYP51 Y132F; Saccharomyces cerevisiae,0.21 ± 0.043 µM
same,MIC80,Y433 OE CgCDR1,5.85 µM
same,MIC,"Y2767 OE CauCYP51; Candidozyma auris, read-out: MIC (nM) C. auris model Y2767",110 ± 10 nM
same,MIC80,Y2767 OE CauCYP51; Saccharomyces cerevisiae,0.11 ± 0.01 µM
same,MIC,"Y2768 OE CauCYP51 Y132F; Candidozyma auris, read-out: MIC (nM) C. auris model Y2768",241 ± 38 nM
same,MIC80,Y2768 OE CauCYP51 Y132F; Saccharomyces cerevisiae,0.241 ± 0.038 µM
same,MIC80,Y2766 OE CauCDR1,20.9 µM
same,MIC80,2711 CnCYP51 OE CnCPR; Saccharomyces cerevisiae,0.018 µM
same,MIC,2711 CnCYP51 OE CnCPR; read-out: MIC (nM) C. neoformans model Y2711,18 nM
same,MIC,"Y2649 OE CYP51 F1 RaCPR; Rhizopus arrhizus, read-out: MIC (nM) R. arrhizus model Y2649",470 ± 240 nM
same,MIC80,Y2649 OE CYP51 F1 RaCPR; Saccharomyces cerevisiae,0.47 ± 0.24 µM
same,MIC80,Y2651 OE CYP51 F5 RaCPR,1.36 ± 0.907 µM
same,MIC80,[1],12.4 µM
same,zone of growth inhibition (inhibitory activity in words),[2],visible reduction in potency
same,zone of growth inhibition (inhibitory activity in words),[3],no effect on its potency
same,IC50,wild-type CaCYP51,0.669 µM
same,IC50,CaCYP51 Y132F,1.24 ± 0.0379 µM
same,IC50,CaCYP51 Y132H + K143R,8.49 ± 1.27 µM
same,IC50,CYP1A2,9.33 ± 1.39 µM
same,IC50,CYP3A4,1.62 ± 0.23 µM
